Patent US20100151104A1, “Preservative System For Beverages Based On Combinations Of Trans-Cinnamic Acid, Lauric Arginate, And Dimethyl Dicarbonate” (priority 2008, published 2010)
Several values for one entry are separate records, joined by “and”; a condition that tells them apart may be missing. Equal values may be shown once. Values belong to the compound of their own block, whether it stands above or below them.

Experiments:
[1] = system: fungal strains; conditions: prior art; incubation no greater than 72 hours; cited from earlier work
[2] = system: Zygosaccharomyces bisporous and Zygosaccharomyces bailii; assay: Tolerance of fungal strains to cinnamic acid over 16 weeks incubation; type: cell-based
Procedure: Over a period of incubation of 16 weeks, fungal strains are found to be tolerant to cinnamic acid at concentrations as high as 300 ppm, or even as high as 450 ppm cinnamic acid (pH 3.4). Thus, cinnamic acid, as a stand alone preservative, would need to be present at a concentrations as high as 450 ppm (e.g. between 450-500) in order to be assured that of preservation against spoilage by organisms such as Zygosaccharomyces bisporous and Zygosaccharomyces bailii for a period of at least 16 weeks. […] Beverage product case packaged in a container and which must pass through lengthy channels of distribution before reaching the consumer need be stable for a period as long as 16 weeks.

[3] = system: Brettanomyces nardensis; assay: Growth in 10% apple juice beverage with combinations of LAE & cinnamic acid; log (QA/Qa+QB/Qb) calculation; type: cell-based
From the text: Trans-cinnamic acid and lauric arginate were combined in the following beverage formulation: [table] […] The analysis of the interaction between lauric arginate and cinnamic acid can be refined through use of a mathematical method developed by Voorspuij and Nass (Arch. Int. pharmacodyn. 59:211 1957) (generally accepted among those practiced in the art.) Herein, the interactions between two active substances can be explored. First the quantity (Qa=Molar Cone) of compound A required for an end point (concentration required to stabilize product for 16 weeks) is established. Similarly, the quantity (Qb =Molar cone) of substance B required to establish the same endpoint is established. Thereafter, mixtures of A & B, in quantities QA & Qs are established that also define endpoints. […] If the sum of the ratios for a mixture of A & Bare=1, then the interaction is considered additive. […] Calculation of log (QA/Qa+QB/Qb) for LAE+trans Cinnamic Acid vs Brettanomyces […]

[4] = pKa and un-dissociated fraction of cinnamic acid; type: physicochemical
From the text: It should be noted that cinnamic acid has a particularly high plc, value (4.42) and at least 45% of the cinnamic acid added to beverage is in the form of the un-dissociated acid.

[5] = system: yeast and mold; conditions: recommended by inventor & manufacturer of LAE; cited from earlier work
[6] = stand alone, end point = concentration required to stabilize product for 16 weeks

cinnamic acid in the form of the un-dissociated acid ([4]; beverage pH 4.5): at least 45%
cinnamic acid in the form of the un-dissociated acid ([4]; pH 5.5): ≤ 7.6%
SMILES: O=C(O)/C=C/c1ccccc1 [Cinnamic Acid, trans-cinnamic acid]
MIC [1]: 125-180 ppm
concentration of cinnamic acid to which fungal strains are tolerant ([2]; incubation of 16 weeks, pH 3.4): 300 ppm and 450 ppm
stand alone concentration needed for preservation against spoilage for at least 16 weeks ([2]; stand alone preservative, 16 weeks): 450-500 ppm
QA/Qa + QB/Qb ([3]; QLAE 0, QCA 50): 1.00
QLAE/QLAE* ([3]; QLAE 0, QCA 50): 0.00
QNaB/QNAB* ([3]; QLAE 0, QCA 50): 1.00
log (QA/Qa + QB/Qb) ([3]; QLAE 0, QCA 50): 0.0000
amount of growth (normalized) to control ([3]; pH 3.0, LAE 0 ppm, Cinnamic Acid 10 ppm): 89%
amount of growth (normalized) to control ([3]; pH 3.0, LAE 0 ppm, Cinnamic Acid 20 ppm): 67%
amount of growth (normalized) to control ([3]; pH 3.0, LAE 0 ppm, Cinnamic Acid 50 ppm): 1%
amount of growth (normalized) to control ([3]; pH 3.0, LAE 0 ppm, Cinnamic Acid 75 ppm): 0%
amount of growth (normalized) to control ([3]; pH 3.0, LAE 0 ppm, Cinnamic Acid 100 ppm): 0%
amount of growth (normalized) to control ([3]; pH 3.5, LAE 0 ppm, Cinnamic Acid 10 ppm): 88%
amount of growth (normalized) to control ([3]; pH 3.5, LAE 0 ppm, Cinnamic Acid 20 ppm): 79%
amount of growth (normalized) to control ([3]; pH 3.5, LAE 0 ppm, Cinnamic Acid 50 ppm): 2%
amount of growth (normalized) to control ([3]; pH 3.5, LAE 0 ppm, Cinnamic Acid 75 ppm): 1%
amount of growth (normalized) to control ([3]; pH 3.5, LAE 0 ppm, Cinnamic Acid 100 ppm): 1%
amount of growth (normalized) to control ([3]; pH 4.0, LAE 0 ppm, Cinnamic Acid 10 ppm): 118%
amount of growth (normalized) to control ([3]; pH 4.0, LAE 0 ppm, Cinnamic Acid 20 ppm): 101%
amount of growth (normalized) to control ([3]; pH 4.0, LAE 0 ppm, Cinnamic Acid 50 ppm): 5%
amount of growth (normalized) to control ([3]; pH 4.0, LAE 0 ppm, Cinnamic Acid 75 ppm): 2%
amount of growth (normalized) to control ([3]; pH 4.0, LAE 0 ppm, Cinnamic Acid 100 ppm): 1%
QCA* (quantity of cinnamic acid alone required for the end point) [3, 6]: QCA* 50

SMILES: CCCCCCCCCCCC(=O)N[C@@H](CCCNC(=N)N)C(=O)OCC.Cl [LAE, ethyl-N-lauroyl-L-argniate hydrochloride]
recommended stand alone concentration to stabilize beverages against spoilage [5]: 128 ppm
QA/Qa + QB/Qb ([3]; QLAE 15, QCA 0): 1.00
QLAE/QLAE* ([3]; QLAE 15, QCA 0): 1.00
QNaB/QNAB* ([3]; QLAE 15, QCA 0): 0.00
log (QA/Qa + QB/Qb) ([3]; QLAE 15, QCA 0): 0.0000
amount of growth (normalized) to control ([3]; pH 3.0, LAE 2.5 ppm, Cinnamic Acid 0 ppm): 89%
amount of growth (normalized) to control ([3]; pH 3.0, LAE 5 ppm, Cinnamic Acid 0 ppm): 116%
amount of growth (normalized) to control ([3]; pH 3.0, LAE 7.5 ppm, Cinnamic Acid 0 ppm): 90%
amount of growth (normalized) to control ([3]; pH 3.0, LAE 10 ppm, Cinnamic Acid 0 ppm): 99%
amount of growth (normalized) to control ([3]; pH 3.0, LAE 15 ppm, Cinnamic Acid 0 ppm): 0%
amount of growth (normalized) to control ([3]; pH 3.5, LAE 2.5 ppm, Cinnamic Acid 0 ppm): 112%
amount of growth (normalized) to control ([3]; pH 3.5, LAE 5 ppm, Cinnamic Acid 0 ppm): 86%
amount of growth (normalized) to control ([3]; pH 3.5, LAE 7.5 ppm, Cinnamic Acid 0 ppm): 81%
amount of growth (normalized) to control ([3]; pH 3.5, LAE 10 ppm, Cinnamic Acid 0 ppm): 57%
amount of growth (normalized) to control ([3]; pH 3.5, LAE 15 ppm, Cinnamic Acid 0 ppm): 0%
amount of growth (normalized) to control ([3]; pH 4.0, LAE 2.5 ppm, Cinnamic Acid 0 ppm): 109%
amount of growth (normalized) to control ([3]; pH 4.0, LAE 5 ppm, Cinnamic Acid 0 ppm): 104%
amount of growth (normalized) to control ([3]; pH 4.0, LAE 7.5 ppm, Cinnamic Acid 0 ppm): 97%
amount of growth (normalized) to control ([3]; pH 4.0, LAE 10 ppm, Cinnamic Acid 0 ppm): 0%
amount of growth (normalized) to control ([3]; pH 4.0, LAE 15 ppm, Cinnamic Acid 0 ppm): 0%
QLAE* (quantity of LAE alone required for the end point) [3, 6]: QLAE* 15
